The results in this text go back to ChEMBL document CHEMBL4014291, “Tripodal squaramide conjugates as highly effective transmembrane anion transporters” (Bioorg Med Chem Lett, 2017).

This test is described as follows: Ionophoric activity across HPTS dye encapsulated pH 7 egg yolk L-alpha-phosphatidylcholine-based large unilamellar vesicles assessed as chloride ion transport by measuring induction of pH discharge in presence of NaCl loaded external vesicles by fluorescence method.

With `O=C(Nc1ccccc1)Nc1ccc(N2COc3c(c4c(c5c3CN(c3ccc(NC(=O)Nc6ccccc6)cc3)CO5)CN(c3ccc(NC(=O)Nc5ccccc5)cc3)CO4)C2)cc1`, the EC50 is 0.49 mol%.
